Source: US7981912B2, “Indole acetic acids exhibiting CRTH2 receptor antagonism and uses thereof” (Wyeth LLC, priority 2004, dated 2011)

Each compound was assayed against T1, human CRTH2 (Homo sapiens, UniProt Q9Y5Y4) (assay: CRTH-2 binding assay (scintillation proximity assay, inhibition of 3H-PGD2 binding)). Settings: inhibition of 3H-PGD2 (3.6 nM) binding to HEK 293EBNA-hCRTH2 membranes; Ki calculated from IC50.
T1 sequence (Q9Y5Y4 1-395): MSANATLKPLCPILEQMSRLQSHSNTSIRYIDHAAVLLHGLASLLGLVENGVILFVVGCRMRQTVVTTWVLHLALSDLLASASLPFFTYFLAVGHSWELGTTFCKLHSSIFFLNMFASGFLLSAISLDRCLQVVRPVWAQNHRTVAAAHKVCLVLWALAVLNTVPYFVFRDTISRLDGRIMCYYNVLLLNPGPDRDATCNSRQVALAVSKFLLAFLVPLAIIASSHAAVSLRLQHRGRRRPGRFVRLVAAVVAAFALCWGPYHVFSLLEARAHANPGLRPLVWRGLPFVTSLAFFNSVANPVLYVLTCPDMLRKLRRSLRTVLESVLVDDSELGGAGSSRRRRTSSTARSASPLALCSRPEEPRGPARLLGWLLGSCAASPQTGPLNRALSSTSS
Parameters: expressed in transfected cells; host or cells: HEK 293EBNA-hCRTH2 (membrane preparation)
Experimental: A CRTH2 binding assay was developed to measure the ability of compounds to inhibit the binding of PGD2 to human CRTH2 using a scintillation proximity assay.
Membranes containing hCRTH2 receptors were prepared from HEK 293EBNA-hCRTH2 cells (a HEK 293EBNA cell line stably expressing human CRTH2). The cells were grown to confluency, harvested and washed with PBS. The cells were resuspended in 10 mM Hepes pH 7.4, 1 mM EDTA and protease inhibitors and incubated for 30 min on ice. The cells were homogenized and centrifuged for 10 min at 1000×g. The supernate was centrifuged for 30 min at 100,000×g and the membrane pellet was then resusupended in 10 mM Hepes pH 7.4 and 1 mM EDTA. The protein concentration of the membrane preparation was determined by Bradford assay (Bio-Rad).
The ability of compounds to inhibit the interaction of PGD2 to human CRTH2 was determined at seven compound concentrations. Compounds were serially diluted in DMSO then diluted into CRTH2 buffer without glycerol (10 mM Hepes pH 7.4, 1 mM EDTA, 10 mM MnCl2) to six times the final desired concentration. 20 μL of the diluted compounds were transferred into non-surface binding 96 well plates (Corning). Each concentration was done in triplicate. In addition to test compounds, each plate contained 12 control wells. Six of these wells contained 20 μL of CRTH2 buffer without glycerol. These wells were used to measure total binding. Six wells contained 20 μL of CRTH2 buffer without glycerol plus 1.5 mM indomethacin. These wells were used to measure non-specific binding. Next, HEK 293EBNA-hCRTH2 membranes were resuspended in CRTH2 buffer with glycerol (10 mM Hepes pH 7.4, 1 mM EDTA, 10 mM MnCl2, 25% glycerol) so that the final concentration was approximately 20 μg protein/100 μL. Polylysine coated yttrium silicate SPA beads (Amershamn) were added to the membrane mix to a concentration of 0.4 mg/100 μL and finally ^3H-PGD2 was added to the membrane/SPA bead mix to 3.6 nM. 100 μL of the membrane/SPA bead/^3H-PGD2 mix was added to each well of the non-surface binding plates containing the diluted compound plus controls. The plates were incubated for 2 hours at room temperature with shaking and then the plates were counted on a Microbeta scintillation counter (Perkin Elmer) for 1 min per well.
IC50 values were determined from the experimental results by nonlinear regression using Prism 4.0 software. The IC50 values were then used in conjunction with the […] for hCRTH2 and the ^3H-PGD2 concentration used in the experiment to calculate the Ki for each compound.
O=C(O)Cn1cc(C2c3ccccc3S(=O)(=O)N2Cc2ccccc2)c2ccccc21 (stereo not shown) [Example 28, [3-(2-Benzyl-1,1-dioxo-2,3-dihydro-1H-1λ^6-benzo[d]isothiazol-3-yl)-indol-1-yl]-acetic acid] was tested, and the Ki was < 10 µM.
For CC(C)CCN1C(c2cn(CC(=O)O)c3ccccc23)c2ccccc2S1(=O)=O (stereo not shown) [Example 29, {3-[2-(3-Methyl-butyl)-1,1-dioxo-2,3-dihydro-1H-1λ^6-benzo[d]isothiazol-3-yl]-indol-1-yl}-acetic acid], the Ki was < 10 µM.
With O=C(O)Cn1cc(C2c3ccccc3S(=O)(=O)N2Cc2ccc3ccccc3n2)c2ccccc21 (stereo not shown) [Example 30, [3-(1,1-Dioxo-2-quinolin-2-ylmethyl-2,3-dihydro-1H-1λ^6-benzo[d]isothiazol-3-yl)-indol-1-yl]-acetic acid] the Ki was < 10 µM.
With O=C(O)Cn1cc(C2c3ccccc3S(=O)(=O)N2Cc2cccc(Oc3ccc(F)cc3)c2)c2ccccc21 (stereo not shown) [Example 31, (3-{2-[3-(4-Fluoro-phenoxy)-benzyl]-1,1-dioxo-2,3-dihydro-1H-1λ^6benzo[d]isothiazol-3-yl}-indol-1-yl)-acetic acid] the Ki was < 1 µM.
In the case of O=C(O)Cn1cc(C2c3ccccc3S(=O)(=O)N2Cc2ccccc2-c2ccccc2)c2ccccc21 (stereo not shown) [Example 32, [3-(2-Biphenyl-2-ylmethyl-1,1-dioxo-2,3-dihydro-1H-1λ^6-benzo[d]isothiazol-3-yl)-indol-1-yl]-acetic acid], the Ki is reported as < 1 µM.
In the case of O=C(O)Cn1cc(C2c3ccccc3S(=O)(=O)N2Cc2csc(-c3cccs3)n2)c2ccccc21 (stereo not shown) [Example 33, {3-[1,1-Dioxo-2-(2-thiophen-2-yl-thiazol-4-ylmethyl)-2,3-dihydro-1H-1λ^6-benzo[d]isothiazol-3-yl]-indol-1-yl}-acetic acid], the Ki is reported as < 1 µM.
In the case of O=C(O)Cn1cc(C2c3ccccc3S(=O)(=O)N2Cc2csc(-c3ccc(Cl)cc3)n2)c2ccccc21 (stereo not shown) [Example 34, (3-{2-[2-(4-Chloro-phenyl)-thiazol-4-ylmethyl]-1,1-dioxo-2,3-dihydro-1H-1λ^6-benzo[d]isothiazol-3-yl}-indol-1-yl)-acetic acid], the Ki is reported as < 1 µM.
In the case of Cc1noc(C)c1CN1C(c2cn(CC(=O)O)c3ccccc23)c2ccccc2S1(=O)=O (stereo not shown) [Example 35, {3-[2-(3,5-Dimethyl-isoxazol-4-ylmethyl)-1,1-dioxo-2,3-dihydro-1H-1λ^6benzo[d]isothiazol-3-yl]-indol-1-yl}-acetic acid], the Ki is reported as < 0.1 µM.
With Cc1onc(-c2ccccc2)c1CN1C(c2c(C)n(CC(=O)O)c3ccccc23)c2ccccc2S1(=O)=O (stereo not shown) [Example 36, {2-Methyl-3-[2-(5-methyl-3-phenyl-isoxazol-4-ylmethyl)-1,1-dioxo-2,3-dihydro-1H-1λ^6-benzo[d]isothiazol-3-yl]-indol-1-yl}-acetic acid] the Ki was < 0.1 µM.
Cc1c(C2c3ccccc3S(=O)(=O)N2CC(=O)Nc2ccc(F)cc2)c2ccccc2n1CC(=O)O (stereo not shown) [Example 37, (3-{2-[(4-Fluoro-phenylcarbamoyl)-methyl]-1,1-dioxo-2,3-dihydro-1H-1λ^6-benzo[d]isothiazol-3-yl}-2-methyl-indol-1-yl)-acetic acid] was tested, and the Ki was < 10 µM.
With Cc1c(C2c3ccccc3S(=O)(=O)N2CCO)c2ccccc2n1CC(=O)O (stereo not shown) [Example 38, {3-[2-(2-Hydroxy-ethyl)-1,1-dioxo-2,3-dihydro-1H-1λ^6-benzo[d]isothiazol-3-yl]-2-methyl-indol-1-yl}-acetic acid] the Ki was < 10 µM.
In the case of Cc1c(C2c3ccccc3S(=O)(=O)N2CCOc2ccc(Cl)cc2)c2ccccc2n1CC(=O)O (stereo not shown) [Example 39, (3-{2-[2-(4-Chloro-phenoxy)-ethyl]-1,1-dioxo-2,3-dihydro-1H-1λ^6-benzo[d]isothiazol-3-yl}-2-methyl-indol-1-yl)-acetic acid], the Ki is reported as < 0.1 µM.
For CCOC(=O)CN1C(c2c(C)n(CC(=O)O)c3ccccc23)c2ccccc2S1(=O)=O (stereo not shown) [Example 40, [3-(2-Ethoxycarbonylmethyl-1,1-dioxo-2,3-dihydro-1H-1λ^6benzo[d]isothiazol-3-yl)-2-methyl-indol-1-yl]-acetic acid], the Ki was < 1 µM.
Cc1c(C2c3ccccc3S(=O)(=O)N2CC2COc3ccccc3O2)c2ccccc2n1CC(=O)O (stereo not shown) [Example 41, {3-[2-(2,3-Dihydro-benzo[1,4]dioxin-2-ylmethyl)-1,1-dioxo-2,3-dihydro-1H-1λ^6-benzo[d]isothiazol-3-yl]-2-methyl-indol-1-yl}-acetic acid] was tested, and the Ki was < 1 µM.
Cc1nc(CN2C(c3c(C)n(CC(=O)O)c4ccccc34)c3ccccc3S2(=O)=O)cs1 (stereo not shown) [Example 42, {2-Methyl-3-[2-(2-methyl-thiazol-4-ylmethyl)-1,1-dioxo-2,3-dihydro-1H-1λ^6benzo[d]isothiazol-3-yl]-indol-1-yl}-acetic acid] was tested, and the Ki was < 1 µM.
Cc1c(C2c3ccccc3S(=O)(=O)N2Cc2cccc(C(F)(F)F)c2)c2ccccc2n1CC(=O)O (stereo not shown) [Example 43, {3-[1,1-Dioxo-2-(3-trifluoromethyl-benzyl)-2,3-dihydro-1H-1λ^6-benzo[d]isothiazol-3-yl]-2-methyl-indol-1-yl}-acetic acid] was tested, and the Ki was < 1 µM.
For Cc1c(C2c3ccccc3S(=O)(=O)N2CCC(C)C)c2ccccc2n1CC(=O)O (stereo not shown) [Example 44, {2-Methyl-3-[2-(3-methyl-butyl)-1,1-dioxo-2,3-dihydro-1H-1λ^6-benzo[d]isothiazol-3-yl]-indol-1-yl}-acetic acid], the Ki was < 1 µM.
C=CCN1C(c2c(C)n(CC(=O)O)c3ccccc23)c2ccccc2S1(=O)=O (stereo not shown) [Example 45, [3-(2-Allyl-1,1-dioxo-2,3-dihydro-1H-1λ^6-benzo[d]isothiazol-3-yl)-2-methyl-indol-1-yl]-acetic acid] was tested, and the Ki was < 1 µM.
With Cc1c(C2c3ccccc3S(=O)(=O)N2CCCOc2ccccc2)c2ccccc2n1CC(=O)O (stereo not shown) [Example 46, {3-[1,1-Dioxo-2-(3-phenoxy-propyl)-2,3-dihydro-1H-1λ^6-benzo[d]isothiazol-3-yl]-2-methyl-indol-1-yl}-acetic acid] the Ki was < 1 µM.
With Cc1c(C2c3ccccc3S(=O)(=O)N2C(C)C)c2ccccc2n1CC(=O)O (stereo not shown) [Example 47, [3-(2-Isopropyl-1,1-dioxo-2,3-dihydro-1H-1λ^6-benzo[d]isothiazol-3-yl)-2-methyl-indol-1-yl]-acetic acid] the Ki was < 1 µM.
In the case of Cc1ccc2c(c1)c(C1c3ccccc3S(=O)(=O)N1Cc1nc3ccccc3s1)cn2CC(=O)O (stereo not shown) [Example 48, [3-(2-Benzothiazol-2-ylmethyl-1,1-dioxo-2,3-dihydro-1H-1λ^6-benzo[d]isothiazol-3-yl)-5-methyl-indol-1-yl]-acetic acid], the Ki is reported as < 1 µM.
With Cc1ccc2c(c1)c(C1c3ccccc3S(=O)(=O)N1Cc1ccc(F)cc1)cn2CC(=O)O (stereo not shown) [Example 49, {3-[2-(4-Fluoro-benzyl)-1,1-dioxo-2,3-dihydro-1H—1λ^6-benzo[d]isothiazol-3-yl]-5-methyl-indol-1-yl}-acetic acid] the Ki was < 1 µM.
Cc1ccc2c(c1)c(C1c3ccccc3S(=O)(=O)N1CCCOCc1ccccc1)cn2CC(=O)O (stereo not shown) [Example 50, {3-[2-(3-Benzyloxy-propyl)-1,1-dioxo-2,3-dihydro-1H-1λ^6-benzo[d]isothiazol-3-yl]-5-methyl-indol-1-yl}-acetic acid] was tested, and the Ki was < 10 µM.
For Cc1ccc2c(c1)c(C1c3ccccc3S(=O)(=O)N1Cc1cccc(C(F)(F)F)c1)cn2CC(=O)O (stereo not shown) [Example 51, {3-[1,1-Dioxo-2-(3-trifluoromethyl-benzyl)-2,3-dihydro-1H-1λ^6-benzo[d]isothiazol-3-yl]-5-methyl-indol-1-yl}-acetic acid], the Ki was < 10 µM.
For COCCCN1C(c2cn(CC(=O)O)c3ccc(C)cc23)c2ccccc2S1(=O)=O (stereo not shown) [Example 52, {3-[2-(3-Methoxy-propyl)-1,1-dioxo-2,3-dihydro-1H-1λ^6-benzo[d]isothiazol-3-yl]-5-methyl-indol-1-yl}-acetic acid], the Ki was < 10 µM.
